According to patent US20200405752A1, “ANTITUMOR AGENT, ANTITUMOR EFFECT ENHANCER, AND ANTITUMOR KIT” (FUJIFILM Corporation, priority 2018, published 2020):

Tested on: human cholangiocarcinoma cell line TFK-1 (spheroid culture)
Assay: Cell viability (CellTiter Glo) of TFK-1 in spheroid culture in combination with cisplatin
Type: cell-based
Settings: for viability at 0.001 µM / viability at 0.003 µM / viability at 0.01 µM / viability at 0.03 µM / viability at 0.1 µM / viability at 0.3 µM / viability at 1 µM / viability at 3 µM / viability at 10 µM / IC50: Homo sapiens; for viability at 0.001 µM / viability at 0.003 µM / viability at 0.01 µM / viability at 0.03 µM / viability at 0.1 µM / viability at 0.3 µM / viability at 1 µM / viability at 3 µM / viability at 10 µM: 72 h, TFK-1 spheroid, with cisplatin 10 μmol/L, 3 days; for viability at 0.001 µM: test substance 1.0 nM; for viability at 0.003 µM: test substance 3.0 nM; for viability at 0.01 µM: test substance 10.0 nM; for viability at 0.03 µM: test substance 30.0 nM; for viability at 0.1 µM: test substance 100.0 nM; for viability at 0.3 µM: test substance 300.0 nM; for viability at 1 µM: test substance 1000.0 nM; for viability at 3 µM: test substance 3000.0 nM; for viability at 10 µM: test substance 10000.0 nM; for IC50 / CI: TFK-1 spheroid culture; for CI: combination with cisplatin
Description: On the combinational effect of the embodiment of the invention, the results of evaluation using a combination index (CI) which is a quantitative index of the combinational effect are shown. The CI can be calculated by the following equation according to Cancer Research, 2010, Vol. 70, pp. 440 to 446.
That is, in a case where the drugs to be used in combination are drug 1 and drug 2, the CI at a certain drug concentration is
CI={(cell viability in case of using drug 1 and drug 2 in combination)/100}/{[(cell viability in case of using drug 1)/100]×[(cell viability in case of using drug 2)/100]}
Evaluation of Antitumor Activity Against Cholangiocarcinoma Cell Line TFK-1 by Combined Use of Cisplatin in Spheroid Culture
Gemcitabine, cisplatin, and methanesulfonate of Compound A were used as test substances.
Gemcitabine hydrochloride (manufactured by Plantex Co., Ltd.) dissolved in dimethyl sulfoxide (DMSO) was used as gemcitabine. Cisplatin (Cat. #039-20091, manufactured by Wako Pure Chemical Industries, Ltd.) dissolved in DMSO was used as cisplatin.
Human cholangiocarcinoma cell line TFK-1 cells were subcultured in RPMI-1640 medium supplemented with 10% serum (Cat. #10437-028, manufactured by Thermo Fisher Scientific Inc.). During this test, all cell cultures were carried out in a CO2 incubator (set to 37° C. and 5% CO2, saturated with water vapor). The culture was diluted with 10% serum-supplemented medium to a cell density of 5000 cells/well/100 μL, and seeded on an Ultra-Low Attachment 96-well plate (Cat. #7007, manufactured by Corning Incorporated). The cells were cultured for 4 days to form spheroids.
The methanesulfonate of Compound A and gemcitabine were dissolved in DMSO to prepare 10 mmol/L DMSO solutions thereof. The thus-prepared DMSO solutions were diluted sequentially with DMSO to prepare DMSO solutions having a final treatment concentration of 1000-fold dilution. Cisplatin was dissolved in DMSO to prepare a 100 mmol/L DMSO solution. The thus-prepared DMSO solution of cisplatin was diluted with DMSO to prepare a DMSO solution having a final treatment concentration of 5000-fold dilution. Further, the DMSO solution of cisplatin was diluted with 10% serum-supplemented medium to prepare a cisplatin-containing medium having a final treatment concentration of 10-fold dilution. The DMSO diluted solutions of Compound A and gemcitabine were diluted with the cisplatin-containing medium to prepare treatment liquids having a final treatment concentration of 10-fold dilution. Compound A and gemcitabine were used with a maximum concentration of 10 μmol/L at a common ratio of 1/3 and 9 concentrations in combination with cisplatin (10 μmol/L).
10 μL of Compound A or gemcitabine diluted with the cisplatin-containing medium was added to each well. In addition, a group in which only a solvent containing no drug was added to wells in which cells were seeded (positive control), and a group in which only a solvent containing no drug was added to wells containing only a medium (negative control) were provided. All groups were set to n=3 well.
The cells were cultured for 3 days after the addition of the drug, and the cell viability was evaluated using a CellTiter Glo (registered trademark) Reagent (Cat. #G7570, manufactured by Promega Corporation) with the intracellular ATP level as an index. The concentration that inhibits cell viability by 50% (IC50 value) was calculated using XLFit software Ver.3 (registered trademark, manufactured by CTC Laboratory Systems Corporation).
The cell viability of each well was determined with the luminescence signal level of the negative control being 0% cell viability and the luminescence signal level of the positive control being 100% cell viability. The average value and standard deviation of the cell viability of each treatment group were calculated to prepare Table 9.

Row | SMILES | viability at 0.001 µM [%] | viability at 0.003 µM [%] | viability at 0.01 µM [%] | viability at 0.03 µM [%] | viability at 0.1 µM [%] | viability at 0.3 µM [%] | viability at 1 µM [%] | viability at 3 µM [%] | viability at 10 µM [%] | IC50 (in combination with cisplatin (10 μmol/L)) [nM] | CI | IC50 (in combination with cisplatin (5 μmol/L)) [nM]
1 | Nc1ccn([C@@H]2O[C@H](CO)[C@@H](O)C2(F)F)c(=O)n1 [Gemcitabine] | 97 | 97 | 97 | 89 | 90 | 83 | 83 | 77 | 66 | ≥ 10000 | 0.78 | –
2 | Nc1ccn([C@@H]2S[C@H](CO)[C@@H](O)[C@@H]2F)c(=O)n1 [Compound A, 1-(2-deoxy-2-fluoro-4-thio-β-D-arabinofuranosyl)cytosine] | 97 | 101 | 96 | 91 | 90 | 65 | 23 | 14 | 9 | – | 0.13 | 469
